For one test, the target named is β2-adrenoreceptor (Homo sapiens, UniProt P07550). Description: cAMP determination in cells expressing β2-adrenoreceptor. Format: cell-based. Particulars: read-out: EC50 (β2), binding potency measured by cAMP determination. An excerpt:
(§1) Accordingly the invention also provides a compound of formula I in free, salt or solvate form for use as a pharmaceutical. […] The β2 agonist activity, onset of action and duration of action of the agents of the invention may be tested using the guinea pig tracheal stip in vitro assay according to the procedure of R. A. Coleman and A. T. Nials, J. Pharmacol. Methods (1989), 21(1), 71-86. The binding potency and selectivity for the β2-adrenoreceptor relative to the β1-adrenoreceptor can be measured by a classical filtration binding assay according to the procedure of Current Protocols in Pharmacology (S. J. Enna (editor-in-chief) et al, John Wiley & Son, Inc, 1998), or by cAMP determination in cells expressing β2- or β1-adrenoceptor, according to the procedure of B. January et al, British J. Pharmacol. 123: 701-711 (1998).

In another test the target is β1-adrenoreceptor (Homo sapiens, UniProt P08588). The experiment in a line: cAMP determination in cells expressing β1-adrenoreceptor. The format is cell-based.
Description: as §1

Test [1] has as its system guinea pig tracheal strip. Description: guinea pig tracheal strip in vitro assay.
Description: as §1

The mark [2] stands for this setting: cells expressing β1-adrenoreceptor, read-out: EC50 (β1), binding potency measured by cAMP determination.

Molecules are shown by their SMILES. Counter-ions that a name gives are not always drawn. Like-named read-outs stand apart in the source and are kept apart here.

Chain of β2-adrenoreceptor (P07550 whole entry, species assumed): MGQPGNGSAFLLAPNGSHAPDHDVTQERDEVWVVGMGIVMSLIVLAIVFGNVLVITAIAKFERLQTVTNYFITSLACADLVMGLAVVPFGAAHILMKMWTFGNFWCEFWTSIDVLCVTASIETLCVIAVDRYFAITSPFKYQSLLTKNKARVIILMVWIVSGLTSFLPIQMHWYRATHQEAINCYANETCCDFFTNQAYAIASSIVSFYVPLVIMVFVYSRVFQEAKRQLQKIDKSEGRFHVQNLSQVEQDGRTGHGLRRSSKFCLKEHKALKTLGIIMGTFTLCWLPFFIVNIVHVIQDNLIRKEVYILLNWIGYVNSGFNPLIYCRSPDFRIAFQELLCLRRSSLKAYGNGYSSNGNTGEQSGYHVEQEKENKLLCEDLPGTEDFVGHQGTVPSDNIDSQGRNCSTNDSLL
Chain of β1-adrenoreceptor (P08588 whole entry, species assumed): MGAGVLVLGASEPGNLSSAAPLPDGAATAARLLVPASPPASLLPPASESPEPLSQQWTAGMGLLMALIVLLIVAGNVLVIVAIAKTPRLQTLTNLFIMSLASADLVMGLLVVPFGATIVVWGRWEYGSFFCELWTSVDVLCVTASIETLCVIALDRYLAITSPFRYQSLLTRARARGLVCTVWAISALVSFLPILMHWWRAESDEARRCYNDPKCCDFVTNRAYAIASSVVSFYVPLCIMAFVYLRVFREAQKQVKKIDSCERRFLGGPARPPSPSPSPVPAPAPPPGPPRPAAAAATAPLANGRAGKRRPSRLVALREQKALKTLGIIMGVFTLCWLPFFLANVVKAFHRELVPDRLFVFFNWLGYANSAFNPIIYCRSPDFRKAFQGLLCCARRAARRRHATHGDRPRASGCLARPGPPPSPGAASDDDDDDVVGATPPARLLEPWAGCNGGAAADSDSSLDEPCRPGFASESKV

As to `COc1ccc(OC)c2c1CC(NC[C@H](O)c1ccc(O)c3[nH]c(=O)ccc13)C2` [Example 1, (R)-8-hydroxy-5-[2-(4,7-Dimethoxy-indan-2-ylamino)-1-hydroxy-ethyl]-1H-quinolin-2-one hydrochloride], the EC50 on β2-adrenoreceptor was determined as 0.92 nM; on β1-adrenoreceptor (setting [2]) it was 9.52 nM.

Turning to `CCc1cc2c(cc1CC)CC(NCC(O)c1ccc(O)c3[nH]c(=O)ccc13)C2` (stereo not shown) [Example 2, 8-hydroxy-5-[2-(5,6-diethyl-indan-2-ylamino)-1-hydroxy-ethyl]-1H-quinolin-2-one], the EC50 is 0.23 nM at β2-adrenoreceptor and 1.25 nM at β1-adrenoreceptor. Moreover, in test [1] (at 71 nM concentration), the “T(50%), time for inhibition of contraction to decay to 50% of its maximum value” (from here on “T(50%), time for inhibition”) was over 400 min.

For `CCc1ccc(CC)c2c1CC(NC[C@H](O)c1ccc(O)c3[nH]c(=O)ccc13)C2` [Example 4], the EC50 came out at 6.07 nM on β2-adrenoreceptor and 14.5 nM on β1-adrenoreceptor (setting [2]). Besides, the “T(50%), time for inhibition” value in test [1] (at 100 nM) came to 82 min.

Consider `O=c1ccc2c([C@@H](O)CNC3Cc4cc5c(cc4C3)CCCC5)ccc(O)c2[nH]1` [Example 5], for which the EC50 at β2-adrenoreceptor is 0.79 nM; at β1-adrenoreceptor (setting [2]) it was 6.1 nM. In addition, the “T(50%), time for inhibition” value in test [1] (at 100 nM) was determined as 444 min.

On to `O=c1ccc2c([C@@H](O)CNC3Cc4cc5c(cc4C3)OCCO5)ccc(O)c2[nH]1` [Example 6], for which the EC50 at β2-adrenoreceptor was 0.3 nM; on β1-adrenoreceptor (setting [2]) it was 3.6 nM.

Turning to `CCCc1cc2c(cc1CCC)CC(NC[C@H](O)c1ccc(O)c3[nH]c(=O)ccc13)C2` [Example 8], the figures for the EC50 on β2-adrenoreceptor and on β1-adrenoreceptor (setting [2]) were 0.57 nM and 8.46 nM, respectively.

In the case of `CC1(NC[C@H](O)c2ccc(O)c3[nH]c(=O)ccc23)Cc2ccccc2C1` [Example 27, 8-Hydroxy-5-[(R)-1-hydroxy-2-(2-methyl-indan-2-ylamino)-ethyl]-1H-quinolin-2-one], the EC50 at β2-adrenoreceptor came to 0.012 nM; at β1-adrenoreceptor (setting [2]) it was 0.5 nM. Moreover, the “T(50%), time for inhibition” value in test [1] (at 1.0 nM) is 222 min.

Turning to `CC1(NC[C@H](O)c2ccc(O)c3[nH]c(=O)ccc23)Cc2cc3c(cc2C1)CCCC3` [Example 29, 8-Hydroxy-5-[(R)-1-hydroxy-2-(2-methyl-2,3,5,6,7,8-hexahydro-1H-cyclopenta[b]naphthalen-2-ylamino)-ethyl]-1H-quinolin-2-one], the “T(50%), time for inhibition” value in test [1] (at 10 nM) worked out at 279 min.

For orientation: EC50 means the concentration giving half of the maximal effect.

The record behind these values is patent publication US8796307B2, “Beta2-adrenoreceptor agonists” (Novartis AG, priority 1999, dated 2014).
